Read-outs that look alike come from different tables or passages of the source.
Tests used:
[1] = tested on: P. falciparum female gametocytes; test: P. falciparum Dual Gamete Formation Assay (PfDGFA), female readout (Pfs25-positive female gametes); format: cell-based, Plasmodium falciparum NF54; settings: for Selectivity ratio F: HepG2 Tox50 versus female IC50; for IC50: PfDGFA, 24 h incubation with gametocytes before induction, female gamete readout, read-out: Female IC50; for HitlevelF: number of replicates with >50% inhibition in the female readout
In short: (§1)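 First, day-14 P. falciparum NF54 gametocytes receive compound for 24 h at 37°C in 1% O2/3% CO2. Next, ookinete medium with Cy3 anti-Pfs25 triggers gametogenesis at 28°C and male exflagellation is imaged. Finally, after 24 h in the dark, Cy3-labelled females are imaged.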

[2] = tested on: P. falciparum male gametocytes; test: P. falciparum Dual Gamete Formation Assay (PfDGFA), male readout (exflagellation); format: cell-based, Plasmodium falciparum NF54; settings: for Selectivity Ratio M: HepG2 Tox50 versus male IC50; for IC50: PfDGFA, 24 h incubation with gametocytes before induction, exflagellation readout, read-out: Male IC50; for HitlevelM: number of replicates with >50% inhibition in the male readout
In short: as §1

HepG2 cells = test: HepG2 cytotoxicity counter-screen; settings: cytotoxic activity against HepG2 cells
[3] = PfDGFA at 2µM, 24h preincubation with gametocytes, average of replicates
[4] = PfDGFA at 2µM, 24h preincubation with gametocytes, replicate R1
[5] = PfDGFA at 2µM, 24h preincubation with gametocytes, replicate R3
[6] = PfDGFA at 2µM, 24h preincubation with gametocytes, replicate R4
[7] = 2µM, 24h preincubation with gametocytes prior to induction of gametogenesis, average of replicates
[8] = 2µM, 24h preincubation with gametocytes prior to induction of gametogenesis, replicate R1
[9] = 2µM, 24h preincubation with gametocytes prior to induction of gametogenesis, replicate R3
[10] = 2µM, 24h preincubation with gametocytes prior to induction of gametogenesis, replicate R4
[11] = Plasmodium falciparum, PfDGFA at 2µM, 24h preincubation with gametocytes, average of replicates, read-out: Average inhibition female (%)
[12] = Plasmodium falciparum, PfDGFA at 2µM, 24h preincubation with gametocytes, replicate R1, read-out: % inhibition female (individual replicates) R1
[13] = Plasmodium falciparum, PfDGFA at 2µM, 24h preincubation with gametocytes, replicate R2, read-out: % inhibition female (individual replicates) R2
[14] = Plasmodium falciparum, PfDGFA at 2µM, 24h preincubation with gametocytes, replicate R3, read-out: % inhibition female (individual replicates) R3
[15] = Plasmodium falciparum, PfDGFA at 2µM, 24h preincubation with gametocytes, replicate R4, read-out: % inhibition female (individual replicates) R4
[16] = Plasmodium falciparum, PfDGFA at 2µM, 24h preincubation with gametocytes, average of replicates, read-out: Average inhibition male (%)
[17] = Plasmodium falciparum, PfDGFA at 2µM, 24h preincubation with gametocytes, replicate R1, read-out: % inhibition male (individual replicates) R1
[18] = Plasmodium falciparum, PfDGFA at 2µM, 24h preincubation with gametocytes, replicate R2, read-out: % inhibition male (individual replicates) R2
[19] = Plasmodium falciparum, PfDGFA at 2µM, 24h preincubation with gametocytes, replicate R3, read-out: % inhibition male (individual replicates) R3
[20] = Plasmodium falciparum, PfDGFA at 2µM, 24h preincubation with gametocytes, replicate R4, read-out: % inhibition male (individual replicates) R4
[21] = 2µM, 24h preincubation with gametocytes, average of replicates
[22] = 2µM, 24h preincubation with gametocytes, replicate R1
[23] = 2µM, 24h preincubation with gametocytes, replicate R3
[24] = 2µM, 24h preincubation with gametocytes, replicate R4

| SMILES | Selectivity ratio F [1] | Selectivity Ratio M [2] | Tox50 (HepG2 cells) [µM] | Average inhibition female (%) [1, 3] [%] | % inhibition female (individual replicates) R1 [1, 4] [%] | % inhibition female (individual replicates) R3 [1, 5] [%] | % inhibition female (individual replicates) R4 [1, 6] [%] | IC50 [1] [µM] | HitlevelF ([1]; 2µM) | Average inhibition male (%) [2, 3] [%] | % inhibition male (individual replicates) R1 [2, 4] [%] | % inhibition male (individual replicates) R3 [2, 5] [%] | % inhibition male (individual replicates) R4 [2, 6] [%] | IC50 [2] [µM] | HitlevelM ([2]; 2µM) | further results |
| --- | --- | --- | --- | --- | --- | --- | --- | --- | --- | --- | --- | --- | --- | --- | --- | --- |
| N=C(N)NCCN(Cc1ccccc1)c1ccc(Cl)cc1 [TCMDC-131838] | 7.49 | 72.58 | 48.68 | – | – | – | – | – | – | – | – | – | – | – | – | inhibition at 2 µM ([1]; Plasmodium falciparum, 2µM, 24h preincubation with gametocytes, average of replicates, read-out: Average inhibition female (%)): 61.5%; inhibition at 2 µM ([1]; Plasmodium falciparum, 2µM, 24h preincubation with gametocytes, replicate R1, read-out: % inhibition female (individual replicates) R1): 40.2%; inhibition at 2 µM ([1]; Plasmodium falciparum, 2µM, 24h preincubation with gametocytes, replicate R2, read-out: % inhibition female (individual replicates) R2): 88.5%; inhibition at 2 µM ([1]; Plasmodium falciparum, 2µM, 24h preincubation with gametocytes, replicate R3, read-out: % inhibition female (individual replicates) R3): 50%; inhibition at 2 µM ([1]; Plasmodium falciparum, 2µM, 24h preincubation with gametocytes, replicate R4, read-out: % inhibition female (individual replicates) R4): 67.4%; IC50 ([1]; Plasmodium falciparum): 6.5 µM; inhibition at 2 µM ([2]; Plasmodium falciparum, 2µM, 24h preincubation with gametocytes, average of replicates, read-out: Average inhibition male (%)): 98.3%; inhibition at 2 µM ([2]; Plasmodium falciparum, 2µM, 24h preincubation with gametocytes, replicate R1, read-out: % inhibition male (individual replicates) R1): 96.5%; inhibition at 2 µM ([2]; Plasmodium falciparum, 2µM, 24h preincubation with gametocytes, replicate R2, read-out: % inhibition male (individual replicates) R2): 98.5%; inhibition at 2 µM ([2]; Plasmodium falciparum, 2µM, 24h preincubation with gametocytes, replicate R3, read-out: % inhibition male (individual replicates) R3): 97.4%; inhibition at 2 µM ([2]; Plasmodium falciparum, 2µM, 24h preincubation with gametocytes, replicate R4, read-out: % inhibition male (individual replicates) R4): 101%; IC50 ([2]; Plasmodium falciparum): 0.67 µM |
| COc1cc2nc(NCCCN3CCCCC3)nc(NCc3ccccc3)c2cc1OC [TCMDC-132012] | 1.71 | 5.75 | 10.87 | 56.5 | 53.1 | 57.0 | 64.1 | 6.34 | 4 | 71.6 | 87.9 | 87.5 | 91.8 | 1.89 | 3 | – |
| CCc1c(CCNCCCCCCNC(C)(C)Cc2ccc3c(c2CC)OCO3)ccc(OC)c1OC.Cl [TCMDC-132055] | 0.81 | 2.57 | 3.55 | 27.4 | 20.6 | -1.3 | 28.0 | 4.4 | 1 | 75.9 | 71.0 | 61.7 | 83.6 | 1.38 | 4 | – |
| CCc1c(CCNCCCC(C)CCNCCc2ccc(OC)c(OC)c2CC)ccc(OC)c1OC.Cl (stereo not drawn) [TCMDC-132065] | 0.73 | 2.01 | 3.92 | – | – | – | – | 5.38 | – | – | – | – | – | 1.95 | – | Average inhibition female (%) [1, 7]: 11.1%; % inhibition female (individual replicates) R1 [1, 8]: 14.0%; % inhibition female (individual replicates) R3 [1, 9]: -5.8%; % inhibition female (individual replicates) R4 [1, 10]: 27.9%; HitlevelF ([1]; 2µM, 24h preincubation): 0; Average inhibition male (%) [2, 7]: 50.4%; % inhibition male (individual replicates) R1 [2, 8]: 69.1%; % inhibition male (individual replicates) R3 [2, 9]: 65.3%; % inhibition male (individual replicates) R4 [2, 10]: 65.1%; HitlevelM ([2]; 2µM, 24h preincubation): 3 |
| COc1cccc(CCc2c(CCNCCCCCCNCCc3ccccc3)ccc(OC)c2OC)c1.Cl [TCMDC-132105] | 4.54 | 2.34 | 2.82 | 52.1 | 47.4 | 59.7 | 72.0 | 0.62 | 2 | 79.5 | 90.7 | 81.0 | 99.1 | 1.2 | 3 | – |
| COc1ccc(CNC2CCN(C)CC2)cc1-c1ccc(S(=O)(=O)NCc2ccccc2)s1.O=C(O)C(F)(F)F [TCMDC-132253] | 1.37 | 3.9 | 5.43 | 28.1 | 31.4 | 13.9 | 24.4 | 3.96 | 0 | 82.6 | 86.4 | 70.7 | 89.6 | 1.39 | 4 | – |
| COc1ccc(CNC2CCN(C)CC2)cc1-c1ccc(S(=O)(=O)NCc2ccccc2)c(F)c1.O=C(O)C(F)(F)F [TCMDC-132262] | 0.84 | 1.94 | 3.59 | 25.6 | 21.9 | 30.7 | 17.0 | 4.28 | 0 | 74.3 | 68.8 | – | 79.4 | 1.85 | 3 | – |
| O=C(c1ccc(-c2cnc3[nH]cc(-c4ccc(C(=O)N5CCOCC5)cc4)c3c2)cc1)N1CCOCC1 [TCMDC-132781] | 2.9 | 66.32 | 28.99 | – | – | – | – | – | 0 | – | – | – | – | – | 4 | inhibition at 2 µM [1, 11]: 9.1%; inhibition at 2 µM [1, 12]: 7.2%; inhibition at 2 µM [1, 13]: 16.3%; inhibition at 2 µM [1, 14]: 1.6%; inhibition at 2 µM [1, 15]: 11.4%; IC50 ([1]; Plasmodium falciparum): > 10 µM; inhibition at 2 µM [2, 16]: 77%; inhibition at 2 µM [2, 17]: 90.7%; inhibition at 2 µM [2, 18]: 89.1%; inhibition at 2 µM [2, 19]: 77.8%; inhibition at 2 µM [2, 20]: 50.2%; IC50 ([2]; Plasmodium falciparum): 0.44 µM |
| CNCCNCc1ccc(-c2ccc(-c3nc4cccc(C)c4[nH]3)cc2)cc1.O=C(O)C(F)(F)F [TCMDC-132837] | 1.52 | 7.9 | 13.18 | 30.6 | 20.0 | 47.7 | 20.5 | 8.69 | 0 | 81.2 | 79.2 | 67.7 | 94.2 | 1.67 | 4 | – |
| CNCCNCc1ccc(-c2ccc(-c3nc4cc(C(F)(F)F)ccc4[nH]3)s2)cc1.O=C(O)C(F)(F)F [TCMDC-132838] | 1.31 | 9.9 | 13.1 | – | – | – | – | – | – | – | – | – | – | 1.32 | – | Average inhibition female (%) [1, 21]: 23.9%; % inhibition female (individual replicates) R1 [1, 22]: 24.8%; % inhibition female (individual replicates) R3 [1, 23]: 17.6%; % inhibition female (individual replicates) R4 [1, 24]: 33.8%; Average inhibition male (%) [2, 21]: 96.4%; % inhibition male (individual replicates) R1 [2, 22]: 96.0%; % inhibition male (individual replicates) R3 [2, 23]: 93.3%; % inhibition male (individual replicates) R4 [2, 24]: 98.9% |
| FC(F)(F)c1ccc2[nH]c(-c3ccc(-c4cccc(CNCCN5CCNCC5)c4)cc3)nc2c1.O=C(O)C(F)(F)F [TCMDC-132864] | 3.99 | 12.52 | 20.55 | – | – | – | – | – | 0 | – | – | – | – | – | 4 | inhibition at 2 µM [1, 11]: 20.5%; inhibition at 2 µM [1, 12]: 25.8%; inhibition at 2 µM [1, 13]: 24.6%; inhibition at 2 µM [1, 14]: -15.8%; inhibition at 2 µM [1, 15]: 47.4%; IC50 ([1]; Plasmodium falciparum): 5.15 µM; inhibition at 2 µM [2, 16]: 82.4%; inhibition at 2 µM [2, 17]: 79.2%; inhibition at 2 µM [2, 18]: 89.7%; inhibition at 2 µM [2, 19]: 65.9%; inhibition at 2 µM [2, 20]: 94.9%; IC50 ([2]; Plasmodium falciparum): 1.64 µM |

Source: PMC10584170, “Machine learning-based phenotypic imaging to characterise the targetable biology of Plasmodium falciparum male gametocytes for the development of transmission-blocking antimalarials” (PLOS Pathogens, 2023)
